According to patent US8334316B2, “Substituted organosulfur compounds and methods of using thereof” (ACEA Biosciences, Inc., priority 2004, dated 2012):

Tests used:
Format in all cases: cell-based
[1] = test system: HT1080 (human fibrosarcoma cell line); experiment: RT-CES system cell proliferation/cytotoxicity IC50, HT1080; settings: HT-1080, time point of maximum inhibition
Description: (§1) The RT-CES system comprises three components, an electronic sensor analyzer, a device station and 16× or 96× microtiter plate devices. Microelectrode sensor array was fabricated on glass slides with lithographical microfabrication methods and the electrode-containing slides are assembled to plastic trays to form electrode-containing wells. Each 16× (or 96×) microtiter plate device used in RT-CES system comprises up to 16 (or 96) such electrode-containing wells. The device station receives the 16× or 96× microtiter plate devices and is capable of electronically switching any one of the wells to the sensor analyzer for impedance measurement. In operation, the devices with cells cultured in the wells are placed into a device station that is located inside an incubator. Electrical cables connect the device station to the sensor analyzer. Under the RT-CES software control, the sensor analyzer can automatically select wells to be measured and continuously conduct impedance measurements. The impedance data from the analyzer is transferred to a computer, analyzed and processed by the integrated software.
(§2) To quantify cell status based on the measured cell-electrode impedance, a parameter termed Cell Index is derived, according to
(§3) [formula] where Rb(f) and Rcell(f) are the frequency dependent electrode resistances (a component of impedance) without cells or with cell present, respectively. N is the number of the frequency points at which the impedance is measured. Thus, Cell Index is a quantitative measure of the status of the cells in an electrode-containing well. Under the same physiological conditions, more cells attached on to the electrodes leads to larger Rcell(f) value, leading to a larger value for Cell Index. Furthermore, for the same number of cells present in the well, a change in the cell status such as morphology will lead to a change in the Cell Index. For example, an increase in cell adhesion or cell spreading leads to larger cell-electrode contact area which will lead to an increase in Rcell(f) and thus a larger value for Cell Index. The Cell Index may also be calculated using a formula different from the one described here. Other methods for calculating the Cell Index based on impedance measurement can be found in PCT application number PCT/US04/37696, fined on Nov. 12, 2004, PCT application number PCT/US05/04481, filed on Feb. 9, 2005, U.S. patent application Ser. No. 10/987,732, filed on Nov. 12, 2004, and U.S. patent application Ser. No. 11/055,639, filed on Feb. 9, 2005.
HT1080 cells (human fibrosarcoma cells) were seeded into wells of 16× or 96× microtiter plate devices (electronic plates, i.e., the plates comprise microelectrode sensor arrays in the wells of the plate) with an initial seeding density of 4,000 cells per well and were pre-incubated in incubator under standard cell culture conditions for about 18.6 hrs. Dibenzyl trisulfide solution in DMSO was added into wells following the incubation period. The cell status was monitored prior to and after the compound addition using RT-CES system. The cell indexes of different wells were between 0.72 and 1.45 just before the compound addition. […] The cell index was normalized against the cell index values at a time point just after compound addition (about 20 hrs after cell seeding).
For the assay performed on the RT-CES system, the cells were seeded into the 16× or 96× microtiter plate devices (electronic plates, i.e., the plates comprise microelectrode sensor arrays in the wells of the plate) at the seeding density ranging from 5000 cells/well to 15,000 cells/well. The cells were incubated at 5% CO2 and 37° C. for overnight till the cell indices reached the growth phase where the cell index was between 0.8 and 1.2. Serially diluted compounds were then added to the cells followed by dynamic monitoring of the effect of the compounds on the cell proliferation and cytotoxicity. […]

[2] = test system: MDA-MB231 (M231, human breast cancer cell line); experiment: RT-CES system cell proliferation/cytotoxicity IC50, MDA-MB231; settings: MDA-MB-231, time point of maximum inhibition
Description: as §1, §2, §3
Dibenzyl trisulfide solution in DMSO was added into wells following the incubation period. The cell status was monitored prior to and after the compound addition using RT-CES system. The cell indexes of different wells were between 0.65 and 0.82 just before the compound addition. […] The cell index was normalized against the cell index values at a time point just after compound addition (about 19.6 hrs after cell seeding).
For the assay performed on the RT-CES system, the cells were seeded into the 16× or 96× microtiter plate devices (electronic plates, i.e., the plates comprise microelectrode sensor arrays in the wells of the plate) at the seeding density ranging from 5000 cells/well to 15,000 cells/well. The cells were incubated at 5% CO2 and 37° C. for overnight till the cell indices reached the growth phase where the cell index was between 0.8 and 1.2. Serially diluted compounds were then added to the cells followed by dynamic monitoring of the effect of the compounds on the cell proliferation and cytotoxicity. The time-dependent IC50 values for each derivative were calculated based the dose responses of cell index value at different time points after compound treatment.
The anticancer potency of a DBTS derivative, ACEA100108 was tested in 7 cancer cell lines on the […]. The cell lines were HT1080, H460, OVCAR4, MCF7, MDA-MB231, HepG2, and A2780. […]

[3] = test system: MCF7 (human breast cancer cell line); experiment: MTT assay IC50 (48 h), MCF7; settings: MCF-7, 48 hours
Protocol: (§4) In another assay format, a test compound is assayed for its cytotoxicity and/or cytostatic effect on certain cancer cell types, using endpoint assay methods. Cells in the NCI cancer cell panel may be used. Cells after a pre-incubation for certain length of time (for example, 8 hrs or 24 hrs) are incubated with a test compound at serially-diluted concentrations (for example, five 10-fold dilutions) for 24 hrs and/or 48 hrs, and/or other specific length of time. The dose dependent cytotoxicity and/or cytostatic effects of test compounds can then be tested and evaluated using the 3-(4,5-dimethylthiazol-2-yl)-2,5-diphenyltetrazolium bromide (MTT) assay method, as described by, for example, Boyd (In Principle of Practice of Oncology, Devita, J. T., Hellman, S. and Rosenberg S. A. (Eds), 1989, Vol, 3, PPO Update, No. 10).
(§5) The anticancer potency of DBTS and its derivatives were tested in 8 different types of human cancer cell lines using the RT-CES system and MTT assay. The 8 cancer cell lines were HT1080 (the human fibrosarcoma cell line), H460 (human non small cell lung cancer cell line), OVCAR4 (the human ovarian cancer cell line), MCF7 (human breast cancer cell line) MDA-MB231 (M231, the human breast cancer cell line) A2780 (the human […] cancer cell line) Jurkat (the human T cell leukemia cell line). The test DBTS derivatives include ACEA100107, ACEA100108, ACEA100109, ACEA100111, ACEA100115, ACEA100116, ACEA100117, ACEA100118, ACEA100119, and ACEA100120.
(§6) For the MTT assay, the cells were seeded into the regular 96× well plates at the cell seeding density ranging from 5000 cells/well to 15,000 cells/well. The cells were incubated at 5% CO2 and 37° C. for overnight. The derivatives were serially diluted and added to the cells. The treatment was terminated after 48 hours of incubation by adding MTT staining reagent. After 4 hours, the staining was stopped by the stop buffer and then the calorimetric measurement was carried out on a microtiter plate reader at dual wave length, 650 nm and 550 nm.

HepG2 cells = experiment: MTT assay IC50 (48 h), HepG2 (eighth cell line not given); settings: Homo sapiens; HepG2, 48 hours
Protocol: as §4, §5, §6

Compound | IC50 [3] [µM] | IC50 (HepG2 cells) [µM] | IC50 [1] [µM] | IC50 [2] [µM]
Fc1ccc(CSSSCc2ccc(F)cc2)cc1 [ACEA100108, Di(p-fluorobenzyl)trisulfide] | > 50 | > 50 | 1.3 | 3.05
Clc1ccccc1CSSSCc1ccccc1Cl [ACEA100115, Di(o-chlorobenzyl)trisulfide] | > 50 | > 50 | 2.2 | 1.06
c1ccc(CSSSCc2ccccc2)cc1 [DBTS, Dibenzyl trisulfide] | > 50 | > 50 | 2.2 | 2.4

Now from value to compound, other results behind:

IC50 [3] [µM] | IC50 (HepG2 cells) [µM] | Compound | IC50 [1] [µM] | IC50 [2] [µM]
> 50 | > 50 | Cc1cccc(CSSSCc2cccc(C)c2)c1 [ACEA100116, di(m-methylbenzyl)trisulfide] | 1.9 | 1.06
> 50 | > 50 | FC(F)(F)c1cccc(CSSSCc2cccc(C(F)(F)F)c2)c1 [ACEA100117, Di(m-trifluoromethylbenzyl)trisulfide] | 27.5 | 41
> 50 | > 50 | Clc1ccc(CSSSCc2ccc(Cl)cc2)cc1 [ACEA100118, Di(p-chlorobenzyl)trisulfide] | 1.2 | 2.3
